Data from US20140341837A1, “Ferrate and Povidone Iodine (PI) Composition” (Biolife, L.L.C., priority 2010, published 2014).

Assays:
[1] = standard hemostasis strength device; details: povidone iodine at 10%
Method: A mixture of various iron sources, chelation compounds, and active antimicrobials was tested using the recovered biofilm from WU according to the matrix in Table III.
Each mixture was tested in a standard hemostasis strength device described in detail in FDA 510k filing, K080210, incorporated herein in its entirety, and in the standardized 96 unit biofilm eradication test device also described in the 510k filing. The results were indexed* to #12, the ferrate/resin/10% PI powder.

[2] = stability of PI in the dry powder; format: physicochemical; details: very dry environment of the powder
Description: The PI is stable in this very dry environment.

[3] = cited from earlier work
[4] = on dilution; cited from earlier work

## PVP-Iodine [PI]
[1]
  effect of PI addition on hemostatic efficiency: does not affect the hemostatic efficiency
[2]
  stability of PI: stable
[3]; 5-10% PI
  efficacy at concentrations of 5-10% PI: ineffective
[3]; pamphlet FIG. 2
  I2 concentration of non-effective kill: < 0.001%
[4]
  solution strength at maximum content of uncomplexed iodine: 0.1%
